# Columns and labels:
# [1] = target: T1, peripheral-type benzodiazepine receptor (PBR) in Y-1 cells (Mus musculus, UniProt P50637); experiment: [3H]PK 11195 binding in Y-1 adrenocortical cells; conditions: 37° C.; for rank order of compound displacement potency against [3H]PK 11195 binding: FIG. 2a
# T1 construct: Y-1 cell cultures were scraped from the flasks; host or cells: Y-1 mouse adrenal tumor cells
# Procedure: (§1) Cells--The Y-1 adrenal mouse tumor cell line used in these studies was obtained from the American Type Culture Collection (ATCC #CCL 79). Stock cultures were grown in modified Waymouth's MB752/l medium containing 20 mM HEPES, 1.2 g/l NaHCO3, 15% horse serum and 2.5% fetal calf serum, pH 7.4. Before use the cells were washed three times at 30 min intervals, with serum-free media in order to eliminate serum components that may interfere with the assays and were incubated for the indicated time periods in the presence of the drugs under investigation. Bovine fasciculata-reticularis and adrenocortical cells from adult (300 g) Sprague-Dawley rats were prepared as previously described by Yanagibashi et al, (1989) Endocrinology 124; 2838-2391.
# Radioligand binding assays--Y-1 cell cultures were scraped from the flasks ([…]) in 5 ml of Kreb's buffer, dispersed by repetitive pipetting, and centrifuged at 1,200 × g for 5 min. The cell pellets were resuspended in Kreb's buffer and larger cellular aggregates were allowed to settle for 5 min. The finely dispersed cell suspensions were taken for further experimentation.
# Binding assays were performed in a total volume of 250-400 ul of Kreb's buffer containing [^3 H]PK 11195 (0.07-20 nM) with 5 ug of cellular protein. Incubations were conducted at 37° C. for 30 min and bound radioligand was measured by filtration through Whatman GF/C filters followed by four rapid 5 ml washes with 25 mM Tris-HCl (pH 7.4) containing 1 uM PK 11195. Filters were subjected to liquid scintillation counting. Nonspecific binding was measured in the presence (of 10 uM nonradioactive PK 11195.
# [2] = test system: purified rat Leydig cells; experiment: Testosterone production by purified rat Leydig cells, basal and hCG stimulated; conditions: for Testosterone, No Additions / stimulation of testosterone production / effect on testosterone production (in words): basal; for Testosterone, No Additions / Testosterone, hCG (50 ng/ml): 4 hours at 32° C., mean ± S.D. n = 3; for Testosterone, No Additions: control 1.30 ± 0.20; for Testosterone, hCG (50 ng/ml): control 15.13 ± 2.05; for stimulation of testosterone production / effect on testosterone production (in words): purified rat Leydig cells; for stimulation of testosterone production: 240 min
# MA-10 Leydig cells = experiment: Progesterone production in MA-10 Leydig cells; assay type: cell-based, mouse; conditions: MA-10 cells, 4 hours incubation
# Procedure: (§2) Cells--The MA-10 cell line originally cloned from the solid M5480P mouse Leydig cell tumor used in these experiments was obtained from Dr. Mario Ascoli (The Population Council, Rockefeller University, N.Y.). Stock cultures were grown in modified Waymouth's MB752/1 medium containing 20 mM HEPES, 1.2 g/l NaHCO3 and 15% horse serum, pH 7.4 as described by Ascoli (1981) Endocrinology 108, 88-95. Before use, the MA-10 Leydig cells were washed three times, in 30 min intervals, with serum-free media in order to eliminate serum components that may interfere with the assays and incubated for the indicated periods of time in the presence of the indicated substances. Testicular interstitial cells were prepared by enzymatic dissociation of testes obtained from adult Sprague-Dawley (300 g) rats. This preparation contained 20-30% 3β-hydroxysteroid dehydrogenase positive cells (Leydig cells). Leydig cells were further purified using discontinuous Percoll gradient centrifugation as described by Papadopoulos et al., 1985 FEBS Letters 188, 312-316. The preparations obtained contained 75-85% Leydig cells as shown by the histochemical staining for 3β-hydroxysteroid dehydrogenase by the procedure of Papadopoulos et al., FEBS Letters 188, supra. [^3 H]PK 11195 binding assays--Cells were scraped from 75 cm^2 culture flasks into 5 ml of Kreb's buffer, dispersed by trituration, and centrifuged at 1,200 × g for 5 min. The cell pellets were resuspended in buffer and larger cell aggregates were allowed to settle to the bottom of the tube before the cell suspension was retrieved for experimentation.
# Steroid Biosynthesis--These experiments were performed with the MA-10 Leydig cells plated in 12×22 mm wells and incubated for the times shown and in the presence of the indicated substances at a final volume of 1 ml of serum-free media at 37° C. […]
# Progesterone and 20-γ-hydroxyprogesterone production for the MA-10 cells, and testosterone accumulation for the rat Leydig cells were measured by means of radioimmunoassay. […]
# PBR in MA-10 cells = target: T2, PBR in MA-10 cells (Mus musculus, UniProt P50637); experiment: [3H]PK 11195 binding in MA-10 Leydig cells; conditions: 37° C.
# T2 construct: endogenous in cells; host or cells: MA-10 mouse Leydig tumor cells (from Dr. Mario Ascoli)
# T2 sequence (P50637 whole entry): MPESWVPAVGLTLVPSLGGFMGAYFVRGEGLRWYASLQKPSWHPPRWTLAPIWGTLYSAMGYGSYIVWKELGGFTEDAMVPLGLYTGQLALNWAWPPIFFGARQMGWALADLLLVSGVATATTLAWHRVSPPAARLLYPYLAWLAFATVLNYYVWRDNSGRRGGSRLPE
# Procedure: as §2
# [^3 H]PK 11195 binding studies on 5 ug of protein from the cell suspensions were performed in 250-400μl of Kreb's buffer at 37° C., essentially the same conditions under which the
# effects of the compounds on steroidogenesis were studied. Nonspecific binding was determined in the presence of 10 μM PK 11195. […] Radioactivity trapped on the filters was determined by liquid scintillation counting. […]
# [3] = Serum testosterone after intravenous alpidem in rats (dosing studies); assay type: in vivo; conditions: adult Sprague-Dawley rats
# Procedure: Alpidem was suspended in isotonic saline by sonication and administered intravenously to adult Sprague-Dawley rats (200-300 g). The doses used ranged from 0.01-1.5 mg/kg, the highest concentration being just below the level needed for behavioral effects to be observed. Control rats were injected with saline alone to serve as control for measurement of basal serum levels of testosterone. After specific times the rats were killed by decapitation and blood was collected. Serum was prepared and testosterone was measured by radioimmunoassay. Each point included three rats for all permutations of each time point and concentration of alpidem used.
# Y-1 adrenocortical cells = experiment: Steroid (20-hydroxyprogesterone) secretion in Y-1 cells; assay type: cell-based, mouse
# Procedure: as §1
# Measurement of steroid production--These experiments were performed with the Y-1 cells plated in 12--22 mm wells and incubated for the times shown at a final volume of 1 ml of serum-free media at 37° C. […] Steroid production was determined by measuring 20-γ-hydroxyprogesterone, the main steroid product of these cells, using a radioimmunoassay with an antibody donated by Dr. G. Nieswender (Univ. of Colorado, Fort Collins), under the process described in Kowal J. (1970), Recent Progress in Hormone Research 26, 623-687 and Schimmer B.P. (1981) in Functionally Differentiated Cell Lines, ed. […]
# [4] = read-out: dissociation constant (Scatchard analysis)
# T1 sequence (P50637 whole entry): as above
smiles,measurement,setting,value
"CC(Cc1cc(-c2ccccc2)nc2ccccc12)C(=O)N(C)C (single isomer, unassigned; (+)) [PK 14068, (+) N,N-dimethyl-x-methyl-2-phenyl-4-quinoline propanamide]",rank order of compound displacement potency against [3H]PK 11195 binding,[1],"alpidem>PK 11195>PK 14067>4'-chlorodiazepam>zolpidem>PK 14608, diazepam>flunitrazepam>clonazepam>flumazenil"
same,"Testosterone, No Additions",[2]; compound 10^-5 M,1.16 ± 0.15 ng/10^5 cel s/4 hours
same,"Testosterone, hCG (50 ng/ml)",[2]; compound 10^-5 M,13.50 ± 1.51 ng/10^5 cel s/4 hours
"CC(Cc1cc(-c2ccccc2)nc2ccccc12)C(=O)N(C)C (single isomer, unassigned; (-)) [PK 14067, (-) N,N-dimethyl-x-methyl-2-phenyl-4-quinoline propanamide]",rank order of compound displacement potency against [3H]PK 11195 binding,[1],"alpidem>PK 11195>PK 14067>4'-chlorodiazepam>zolpidem>PK 14608, diazepam>flunitrazepam>clonazepam>flumazenil"
same,stimulation of progesterone production,MA-10 Leydig cells,3 to 4 fold
same,"Testosterone, No Additions",[2]; compound 10^-6 M,2.20 ± 0.30 ng/10^5 cel s/4 hours
same,"Testosterone, hCG (50 ng/ml)",[2]; compound 10^-6 M,14.13 ± 1.49 ng/10^5 cel s/4 hours
"CCC(C)N(C)C(=O)c1cc2ccccc2c(-c2ccccc2Cl)n1 (stereo not drawn) [PK 11195, 1-(2-chlorophenyl)-N-methyl-N-(l-methylpropyl)-3-isoquinoline carboxamide]",Bmax,[1],54 pmol/mg of protein
same,time to reach binding equilibrium,[1],≤ 15 min
same,rank order of compound displacement potency against [3H]PK 11195 binding,[1],"alpidem>PK 11195>PK 14067>4'-chlorodiazepam>zolpidem>PK 14608, diazepam>flunitrazepam>clonazepam>flumazenil"
same,Kd,[1]; [4],1.8 nM
same,stimulation of progesterone production,MA-10 Leydig cells,3 to 4 fold
same,"Testosterone, No Additions",[2]; compound 10^-6 M,2.33 ± 0.21 ng/10^5 cel s/4 hours
same,"Testosterone, hCG (50 ng/ml)",[2]; compound 10^-6 M,14.86 ± 1.51 ng/10^5 cel s/4 hours
same,stimulation of testosterone production,[2],about 2 fold
same,density of binding sites,PBR in MA-10 cells,56 pmol/mg of protein
same,time to reach steady-state specific binding,PBR in MA-10 cells,10 min
same,Kd,PBR in MA-10 cells; [4],1.8 nM
CCCN(CCC)C(=O)Cc1c(-c2ccc(Cl)cc2)nc2ccc(Cl)cn12 [alpidem],rank order of compound displacement potency against [3H]PK 11195 binding,[1],"alpidem>PK 11195>PK 14067>4'-chlorodiazepam>zolpidem>PK 14608, diazepam>flunitrazepam>clonazepam>flumazenil"
same,time for which elevated testosterone levels were maintained,[3],at least 4 hours
same,increase in serum testosterone levels,[3]; doses greater than or equal to 0.01 mg/kg,2-4 times above control levels
same,stimulation of progesterone production,MA-10 Leydig cells,3 to 4 fold
same,"Testosterone, No Additions",[2]; compound 10^-7 M,2.35 ± 0.27 ng/10^5 cel s/4 hours
same,"Testosterone, hCG (50 ng/ml)",[2]; compound 10^-7 M,15.02 ± 2.31 ng/10^5 cel s/4 hours
same,stimulation of testosterone production,[2],about 2 fold
O=C1CN=C(c2ccccc2Cl)c2cc([N+](=O)[O-])ccc2N1 [clonazepam],rank order of compound displacement potency against [3H]PK 11195 binding,[1],"alpidem>PK 11195>PK 14067>4'-chlorodiazepam>zolpidem>PK 14608, diazepam>flunitrazepam>clonazepam>flumazenil"
same,"Testosterone, No Additions",[2]; compound 10^-5 M,1.16 ± 0.11 ng/10^5 cel s/4 hours
same,"Testosterone, hCG (50 ng/ml)",[2]; compound 10^-5 M,14.90 ± 2.22 ng/10^5 cel s/4 hours
same,effect on testosterone production (in words),[2],no effect
same,effect on steroid production (in words),Y-1 adrenocortical cells,failed to stimulate steroid production
CN1C(=O)CN=C(c2ccccc2)c2cc(Cl)ccc21 [diazepam],rank order of compound displacement potency against [3H]PK 11195 binding,[1],"alpidem>PK 11195>PK 14067>4'-chlorodiazepam>zolpidem>PK 14608, diazepam>flunitrazepam>clonazepam>flumazenil"
same,"Testosterone, No Additions",[2]; compound 10^-5 M,1.90 ± 0.10 ng/10^5 cel s/4 hours
same,"Testosterone, hCG (50 ng/ml)",[2]; compound 10^-5 M,14.96 ± 3.09 ng/10^5 cel s/4 hours
same,effect on testosterone production (in words),[2],less potent
CCOC(=O)c1ncn2c1CN(C)C(=O)c1cc(F)ccc1-2 [flumazenil],rank order of compound displacement potency against [3H]PK 11195 binding,[1],"alpidem>PK 11195>PK 14067>4'-chlorodiazepam>zolpidem>PK 14608, diazepam>flunitrazepam>clonazepam>flumazenil"
same,effect on steroid production (in words),Y-1 adrenocortical cells,failed to stimulate steroid production
CN1C(=O)CN=C(c2ccccc2F)c2cc([N+](=O)[O-])ccc21 [flunitrazepam],rank order of compound displacement potency against [3H]PK 11195 binding,[1],"alpidem>PK 11195>PK 14067>4'-chlorodiazepam>zolpidem>PK 14608, diazepam>flunitrazepam>clonazepam>flumazenil"
Cc1ccc(-c2nc3ccc(C)cn3c2CC(=O)N(C)C)cc1 [zolpidem],rank order of compound displacement potency against [3H]PK 11195 binding,[1],"alpidem>PK 11195>PK 14067>4'-chlorodiazepam>zolpidem>PK 14608, diazepam>flunitrazepam>clonazepam>flumazenil"
